#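 Growth conditions: 96-well plates. Treatment: test compound, 48 hours, 5 concentrations. Analysis: linear interpolation between bracketing concentrations; unreached endpoints set to highest concentration. At the TGI there is no net growth.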
# What was measured:
# Test in all cases: growth of human tumour cells (NCI), 48 h
# 786-0 renal = tested on: 786-0 renal
# A498 renal = tested on: A498 renal
# A549 NSCLC = tested on: A549 NSCLC
# ACHN renal = tested on: ACHN renal
# BT-549 breast = tested on: BT-549 breast
# CAKI-1 renal = tested on: CAKI-1 renal
# CCRF-CEM leukemia = tested on: CCRF-CEM leukemia
# COLO 205 colon = tested on: COLO 205 colon
# DU-145 prostate = tested on: DU-145 prostate
# EKVX NSCLC = tested on: EKVX NSCLC
# HCT-116 colon = tested on: HCT-116 colon
# HCT-15 colon = tested on: HCT-15 colon
# HL-60(TB) leukemia = tested on: HL-60(TB) leukemia
# HOP-62 NSCLC = tested on: HOP-62 NSCLC
# HOP-92 NSCLC = tested on: HOP-92 NSCLC
# HS 578T breast = tested on: HS 578T breast
# HT29 colon = tested on: HT29 colon
# IGROV1 ovarian = tested on: IGROV1 ovarian
# K-562 leukemia = tested on: K-562 leukemia
# KM12 colon = tested on: KM12 colon
# LOX IMVI melanoma = tested on: LOX IMVI melanoma
# M14 melanoma = tested on: M14 melanoma
# MALME-3M melanoma = tested on: MALME-3M melanoma
# MCF7 breast = tested on: MCF7 breast
# MDA-MB-231 breast = tested on: MDA-MB-231 breast
# MDA-MB-435 = tested on: MDA-MB-435
# NCI-H226 lung = tested on: NCI-H226 lung
# NCI-H23 lung = tested on: NCI-H23 lung
# NCI-H460 lung = tested on: NCI-H460 lung
# NCI-H522 lung = tested on: NCI-H522 lung
# NCI/ADR-RES ovarian = tested on: NCI/ADR-RES ovarian
# OVCAR-3 ovarian = tested on: OVCAR-3 ovarian
# OVCAR-4 ovarian = tested on: OVCAR-4 ovarian
# OVCAR-5 ovarian = tested on: OVCAR-5 ovarian
# OVCAR-8 ovarian = tested on: OVCAR-8 ovarian
# PC-3 prostate = tested on: PC-3 prostate
# RPMI-8226 leukemia = tested on: RPMI-8226 leukemia
# RXF 393 renal = tested on: RXF 393 renal
# SF-268 CNS = tested on: SF-268 CNS
# SF-295 CNS = tested on: SF-295 CNS
# SF-539 CNS = tested on: SF-539 CNS
# SK-MEL-2 melanoma = tested on: SK-MEL-2 melanoma
# SK-MEL-28 melanoma = tested on: SK-MEL-28 melanoma
# SK-MEL-5 melanoma = tested on: SK-MEL-5 melanoma
# SK-OV-3 ovarian = tested on: SK-OV-3 ovarian
# SN12C renal = tested on: SN12C renal
# SNB-19 CNS = tested on: SNB-19 CNS
# SNB-75 CNS = tested on: SNB-75 CNS
# SR leukemia = tested on: SR leukemia
# SW-620 colon = tested on: SW-620 colon
# T-47D breast = tested on: T-47D breast
# TK-10 renal = tested on: TK-10 renal
# U251 CNS = tested on: U251 CNS
# UACC-257 melanoma = tested on: UACC-257 melanoma
# UACC-62 melanoma = tested on: UACC-62 melanoma
# UO-31 renal = tested on: UO-31 renal
structure (smiles),measurement,setting,value
O=C(O)CNc1ccc2c(c1)Cc1cc(Br)ccc1-2,TGI,786-0 renal,> 84.5 µM
same,TGI,A498 renal,85.8 µM
same,TGI,A549 NSCLC,> 81.3 µM
same,TGI,ACHN renal,> 100 µM
same,TGI,BT-549 breast,58.6 µM
same,TGI,CAKI-1 renal,98.4 µM
same,TGI,CCRF-CEM leukemia,> 100 µM
same,TGI,COLO 205 colon,> 71 µM
same,TGI,DU-145 prostate,82.4 µM
same,TGI,EKVX NSCLC,49.7 µM
same,TGI,HCT-116 colon,> 49.1 µM
same,TGI,HCT-15 colon,> 100 µM
same,TGI,HL-60(TB) leukemia,> 100 µM
same,TGI,HOP-62 NSCLC,> 67.8 µM
same,TGI,HOP-92 NSCLC,> 90.7 µM
same,TGI,HS 578T breast,36.4 µM
same,TGI,HT29 colon,97.4 µM
same,TGI,IGROV1 ovarian,> 100 µM
same,TGI,K-562 leukemia,> 40.9 µM
same,TGI,KM12 colon,50.7 µM
same,TGI,LOX IMVI melanoma,> 100 µM
same,TGI,M14 melanoma,> 77.1 µM
same,TGI,MALME-3M melanoma,> 67.9 µM
same,TGI,MCF7 breast,> 100 µM
same,TGI,MDA-MB-231 breast,> 68.9 µM
same,TGI,MDA-MB-435,45 µM
same,TGI,NCI-H226 lung,> 79.3 µM
same,TGI,NCI-H23 lung,49.3 µM
same,TGI,NCI-H460 lung,> 60.3 µM
same,TGI,NCI-H522 lung,56.8 µM
same,TGI,NCI/ADR-RES ovarian,> 63.3 µM
same,TGI,OVCAR-3 ovarian,> 100 µM
same,TGI,OVCAR-4 ovarian,87.2 µM
same,TGI,OVCAR-5 ovarian,> 73.1 µM
same,TGI,OVCAR-8 ovarian,> 100 µM
same,TGI,PC-3 prostate,> 100 µM
same,TGI,RPMI-8226 leukemia,> 95.5 µM
same,TGI,RXF 393 renal,> 94.6 µM
same,TGI,SF-268 CNS,> 100 µM
same,TGI,SF-295 CNS,97 µM
same,TGI,SF-539 CNS,58.4 µM
same,TGI,SK-MEL-2 melanoma,> 79 µM
same,TGI,SK-MEL-28 melanoma,> 100 µM
same,TGI,SK-MEL-5 melanoma,25.8 µM
same,TGI,SK-OV-3 ovarian,98.5 µM
same,TGI,SN12C renal,> 69.4 µM
same,TGI,SNB-19 CNS,> 84.6 µM
same,TGI,SNB-75 CNS,> 89.8 µM
same,TGI,SR leukemia,1.31 µM
same,TGI,SW-620 colon,> 96.8 µM
same,TGI,T-47D breast,> 100 µM
same,TGI,TK-10 renal,> 84.6 µM
same,TGI,U251 CNS,97 µM
same,TGI,UACC-257 melanoma,72.7 µM
same,TGI,UACC-62 melanoma,76.4 µM
same,TGI,UO-31 renal,> 100 µM

# From PubChem BioAssay (NCI)
